# Measurements from patent publication US20240197869A1, “HYPERACTIVATORS OF MAMMALIAN DENDRITIC CELLS” (Corner Therapeutics, Inc., priority 2021, published 2024).
# Entries after “also recorded” stand apart in the source; their conditions may differ.
# Columns and labels:
# [1] = system: canine peripheral blood mononuclear cells (PBMCs); test: IL-1β secretion by canine PBMCs (ELISA); type: cell-based; conditions: lipid 82.5 μM combined with R848 1 μg/mL, 2 days
# Procedure: Isolation of PBMCs from Whole Blood. PBMCs were isolated from whole blood using density gradient centrifugation with Ficoll-Paque PLUS (Cytivia). Whole blood was diluted 1:1 with PBS, layered on top of Ficoll-Paque PLUS and centrifuged at 1000×g for 30 minutes at room temperature. PBMCs were collected, washed twice in PBS, and incubated with Ack lysis buffer (Lonza) to remove any remaining red blood cells.
# Cell Culture and Stimulation. […] Cells were plated at 1×10^5 (canine cells) or 1×10^6 (human cells) per well in 96-well flat bottom tissue culture plates. Lyophilized Vaccigrade R848 (Invivogen) was reconstituted and diluted according to manufacturer's recommendations and added to cells at a final concentration of 1 μg/mL.
# Quantification of Cytokine Secretion. IL-1β secretion from human PBMCs was assessed using one of the following kits: ELISA MAX Deluxe Set Human IL-1β kit (Biolegend), Invitrogen Human IL-1β kit, or the Lumit™ Human IL-1β Immunoassay (Promega). IFNγ secretion from human PBMCs was assessed using the ELISA MAX Deluxe Set Human IFNγ (Biolegend) and TNFα secretion from human PBMCs was assessed using the Human TNFα Uncoated ELISA kit (Invitrogen). […] IL-1β secretion from canine PBMCs was assessed using the Canine IL-1β/IL-1F2 DuoSet ELISA (R&D) according to manufacturer's instructions with the following modifications: i) total sample+buffer volume for incubation was reduced from 100 μL to 50 μL; ii) sample incubation was completed overnight at 4° C. on an orbital shaker. For all ELISAs, absorbance was measured at 450 nm, with a 570 nm correction, using a Spectramax M5e plate reader (Molecular Devices). For Lumit™ assays, luminescence was measured on all wavelengths using a Spectramax M5e plate reader (Molecular Devices) with an integration time of 500 ms. […]
# [2] = system: murine, FLT3L-differentiated cDC1 and cDC2 cells; test: Flow cytometry of surface markers on murine cDC1 and cDC2; type: cell-based, mouse
# Procedure: Murine FLT3L-differentiated, bone marrow-derived DC (BMDC) generation. Leg femur and tibia were removed from mice, cut with scissors and flushed into sterile tubes. Bone marrow suspension was treated with ACK for 1 minute, then passed through a 40 um cell strainer. Cells were counted and resuspended in media consisting of complete IMDM containing 10% FBS, penicillin and streptomycin, and supplements of L-glutamine and sodium pyruvate (I10). Cells were then plated at 5E6 bone marrow cells per well in a P12 plate. Recombinant mouse FLT3L (Miltenyi) was added to cultures at 200 ng/mL. Differentiated cells were used for subsequent assays on day 9. The efficiency of differentiation was monitored by flow cytometry using BD Symphony A3, and CD11c+MHC-II+ cells were routinely above 80% of living cells. For each experiment, five mice were used to collect BM and to generate DCs.
# Murine FLT3L-differentiated BMDC (FLT3L-BMDC) hyperactivation. BMDCs were washed with PBS and re-plated in FLT3L-containing 110 at a concentration of 1.5×10^5 cells/well. Stimuli were added to cultures at indicated concentrations for a final volume of 200 uL/well. Twenty-four hours post-stimulation, cell culture supernatant was collected after centrifugation and stored at −20° C. to measure cytokine secretion. IL-1b, IL-6, IL-12p40, and TNF-alpha ELISA were performed using eBioscience Ready-SET-Go! (now ThermoFisher) ELISA kits according to the manufacturer's protocols. Cell viability was measured using Promega's Cell Titer-Glo reagent kits.
# Flow cytometry. After FcR blockade, treated FLT3L-BMDCs were washed and stained in PBS with Live Dead Fixable dye (ThermoFisher) for 20 minutes at 4° C. Cells were then washed again and stained for 20 minutes at 4° C. in MACS buffer (PBS with 1% FCS and 2 mM EDTA) containing the following fluorescently conjugated antibodies purchased from BioLegend: anti-CD11c, anti-I-A/I-E, anti-H-2Kb, anti-SIRPa, anti-CD24, anti-CD40, anti-CD45R, anti-CXCL16 and anti-CCR7. Data were acquired on a BD FACS Symphony (Becton-Dickenson). Data were analyzed using FlowJo software (Tree Star). […]
# [3] = system: human monocyte-derived dendritic cells (moDCs); test: DAMP screen: viability of human moDCs (CellTiter-Glo)
# Procedure: Danger-Associated Molecular Pattern (DAMP) Screen. After 6 days of differentiation into moDC, cells were collected and counted. Cells were plated at 100,000 cells/well in R10 media in 96-well flat bottom tissue culture-treated plates. LPS, serotype O55:B5 (Enzo Life Sciences) was added to a final concentration of 1 μg/mL in each well. […] Cells were incubated at 37° C., 5% CO2 for two days. Cell cultures were then used for endpoint analyses.
# Endpoint Analyses. After culturing moDCs with PAMPs and DAMPs for two days, supernatant and cell samples were collected for analysis.
# Quantification of Cell Viability. Cell viability was assessed by quantifying the presence of ATP as an indicator of metabolically active cells using the CellTiter-Glo Luminescent Cell Viability Assay (Promega). Metabolic activity was assessed following manufacturer's instructions. The CellTiter-Glo reagent was mixed with the cell pellets and remaining supernatant, and transferred to a white, opaque 96-well plate. Luminescence was measured on all wavelengths on a Spectramax iD3 plate reader (Molecular Devices) using an integration time of 500 ms. Percent viability was calculated relative to the control condition of moDCs treated with LPS.
smiles,measurement,setting,value
"CCCCCCCCCCCCCCCCCCCCCC(=O)OC[C@@H](O)COP(=O)([O-])OCC[N+](C)(C)C [22:0 LYSO PC, 1-behenoyl-2-hydroxy-sn-glycero-3-phosphocholine]",IL-1β secretion (in words),[1],comparable or higher levels of IL-1β compared to every other stimuli tested; also recorded: hyperactivated to a greater extent
same,CD40 expression (in words),"[2]; R848 + 41 uM lipid in 5% KP407, cDC1 and cDC2",strongly enhanced
same,MHC class I expression (in words),[2]; R848 + lipid vs R848 alone,enhanced MHC class I expression on both cDC1 and cDC2 subsets
same,CCR7 expression (in words),"[2]; cDC1, R848 + lipid in KP407 formulation",increased their CCR7 expression significantly compared to R848 alone
same,Relative Viability (%) ± SD,"[3]; 41.3 μM lipid + LPS 1 μg/mL, 2 days, relative to LPS-treated moDCs, Table 1-2",47.6%
same,Relative Viability (%) ± SD,"[3]; 82.5 μM lipid + LPS 1 μg/mL, 2 days, relative to LPS-treated moDCs, Table 1-1",14.6%
same,Relative Viability (%) ± SD,"[3]; 82.5 μM lipid + LPS, selected lipids, Table 1-3 (repeats Table 1-1)",14.6%
